# In patent US20260159854A1, “NOVEL CARRIERS FOR NUCLEIC ACID AND/OR PROTEIN DELIVERY” (LUDWIG-MAXIMILIANS-UNIVERSITÄT MÜNCHEN, priority 2022, published 2026):
# Assays:
# N2a cells [1] = assay: Luciferase expression assay of pDNA polyplexes in N2a cells; assay type: cell-based, murine; details: for dose dependence of pDNA transfection efficiency: dose titration 200, 100, 50, 26, 14 ng pCMVLuc/well; for transfection efficiency (luciferase expression) of pDNA polyplexes: 24 h, standard pDNA dose 200 ng/well, compared with LPEI N/P 6
# [2] = Particle size, polydispersity and zeta potential measurement (DLS, ELS); assay type: physicochemical; parameters: Zeta / Size: unit not given here
# Protocol: 6.6 Particle Size and Zeta Potential Measurement for pDNA, mRNA, siRNA, Cas9 mRNA/sgRNA and Cas9 mRNA/sgRNA/ssDNA Polyplexes as Well as mRNA LNPs
# Measurements of size and zeta potential were performed with a Zetasizer Nano ZS (Malvern Instruments, Malvern, Worcestershire, U.K.) in a folded capillary cell (DTS1070) by dynamic and electrophoretic laser-light scattering (DLS, ELS). […] Samples were measured three times with six sub runs per measurement. For measurement of the zeta potential, all samples were diluted to 800 μL with HBG or HEPES (for siRNA polyplexes) directly before measurement. Parameters were identical to the size measurement apart from an equilibration time of 60 sec. Three measurements with 15 sub runs lasting 10 sec each were performed, and zeta potentials were calculated by the Smuchowski equation.
# N2a cells [3] = assay: Luciferase expression assay of mRNA polyplexes in N2a cells; assay type: cell-based, murine
# N2a cells [4] = assay: Co-delivery efficiency of mRNA/pDNA polyplexes by flow cytometry; assay type: cell-based, murine; details: N/P 18, 25 and 50 ng combined nucleic acid/well
# Protocol: CleanCap® mCherry mRNA (5moU) (Trilink Biotechnologies, San Diego, CA, USA) and pEGFP-N1 pDNA (Clontech Laboratories, Inc. (now Takara Bio USA, Inc., San Jose, CA, USA)) at a fixed weight ratio of 1:1 were mixed and diluted in HBG. Calculated amounts of aminolipid at indicated N/P (nitrogen/phosphate) ratios (see above) were diluted in separate tubes of HBG. Equal volumes of nucleic acid solution and aminolipid solution were mixed by rapid pipetting and incubated 40 min at RT in a closed Eppendorf reaction tube. The final concentration of nucleic acid in the polyplex solution was 5 μg/mL (2.5 μg/mL mCherry mRNA plus 2.5 μg/mL pEGFP-N1 pDNA).
# mRNA/pDNA polyplex treatments were performed in triplicate in 96-well plates. N2a cells were seeded 24 h prior to transfection (10,000 cells/well). On the next day, the medium was replaced with 80 μL of fresh pre-warmed medium containing 10% (v/v) FBS. The nanoparticles were prepared as described above, and the volumes of 10 and 5 μL of polyplex solution (2.5 μg/mL mCherry mRNA and 2.5 μg/mL pEGFP-N1 pDNA) were added. 20 μL HBG buffer per well was used as negative control. After 24 h of treatment, cells were collected and re-suspended in PBS solution containing 10% (v/v) FBS (FACS buffer) for flow cytometric evaluation. All samples were analyzed by flow cytometry using a CytoFLEX S Flow Cytometer (Beckman Coulter, Brea, CA, USA). Shortly before the measurement, 1 ng/μL 4′, 6-diamidino-2-phenylindole (DAPI) was added and used to discriminate between viable and dead cells. The cellular fluorescence was assayed by excitation of DAPI at 405 nm and detection of emission at 450 nm. Only isolated viable cells were evaluated. Gates were set compared to control measurements with HBG buffer-treated cells. […] Flow cytometry data were analyzed using FlowJo™ v10.8 flow cytometric analysis software by FlowJo, LLC (Becton, Dickinson and Company, U.S.). The cellular fluorescence expression was assayed by excitation at 561 nm and 488 nm, the detection of emission at 610 nm and 530 nm for mCherry and eGFP, respectively.
# HeLa cells = assay: CellTiterGlo assay (relative metabolic activity); assay type: cell-based; details: for toxicity (relative metabolic activity, CellTiter Glo): pDNA polyplexes 200 ng/well, 24 h, vs non-reducible analogs
# Protocol: HeLa cells were seeded 24 h prior to transfection (5000 cells/well) in 96-well plates. Immediately prior to transfection, the medium was replaced with suitable amounts of fresh medium containing 10% (v/v) FBS to reach a final volume of 100 μL during transfection. The nanoparticles were prepared as described in section 6.1 and transfected with indicated doses. The medium was removed at 24 h after transfection, and 25 μL of fresh, pre-warmed medium as well as 25 μL of CellTiterGlo® Reagent (Promega, Mannheim, Germany) were added to each well [S. Berger et al., Biomacromolecules 2021, 22, 1282; A. Krhač Levačić et al., J Controlled Release 2021, 339, 27]. After incubation on an orbital shaker for 30 min at RT, luminescence was recorded using a Centro LB 960 plate reader luminometer (Berthold Technologies, Bad Wildbad, Germany). The luminescent signals (in RLU) of the samples were normalized to the luminescent signal of the negative control (HBG buffer-treated control cells). Results were presented as relative metabolic activity related to the negative control. Experiments were performed as triplicates.
# [5] = system: N2a tumor-bearing A/J mice; assay: Ex vivo luciferase expression after intravenous injection of mRNA polyplexes; assay type: in vivo
# Protocol: Neuro2a cells (10^6 cells/150 μL PBS) were inoculated subcutaneously into the left flank of 6-week-old female A/J mice (Envigo RMS GmbH, Dusseldorf, Germany). Mice were randomly divided into groups of three (in the case of mRNA LNPs) or five (in the case of mRNA polyplexes) and were housed in isolated ventilated cages under specific pathogen free conditions with a 12 h day/night interval, and food and water ad libitum. Weight and general well-being were monitored continuously. Tumor size was measured with a caliper and determined by formula: a*b^2/2 (a=longest side of the tumor; b=widest side vertical to a). When tumors reached a size of 250-500 mm3, the experiments were performed by intravenous tail vein injection of polyplexes or LNPs formed as described in 6.1 and 6.3, containing 1 μg, 3 μg or 10 μg of stabilized firefly luciferase encoding mRNA (CleanCap™ FLuc mRNA (5moU); Trilink Biotechnologies, San Diego, CA, USA) in 150 μL HBG. Polyplexes containing 10 μg mRNA were dialyzed for 1 h at 4° C. against HBG (dialysis membrane MWCO 100-500 Da; Spectra/Por®, Carl Roth, Karlsruhe, Germany) prior to application to remove small amounts of ethanol. […] The luciferase gene expression was determined as described above and is presented as relative light units (RLU) per gram (g) tumor/organ.
# To evaluate luciferase mRNA delivery by an ex vivo luciferase gene expression assay, organ and tumor tissues were homogenized in Luciferase Cell Culture Lysis Reagent 1× (Promega, Mannheim, Germany), supplemented with 1% (v/v) protease and phosphatase inhibitor cocktail (Sigma-Aldrich, Munich, Germany) using a tissue and cell homogenizer (FastPrep®-24, MP Biomedicals, USA). […] Luciferase activity in 25 μL supernatant was measured in a Centro LB 960 plate reader luminometer (Berthold Technologies, Bad Wildbad, Germany) for 10 sec after addition of 100 μL/well of a LAR buffer solution (20 mM glycylglycine, 1.0 mM MgCl2, 0.10 mM EDTA, 3.3 mM DTT, 0.55 mM ATP, and 0.27 mM coenzyme A; pH 8-8.5) supplemented with 5% (v/v) of a mixture of 10 mM luciferin and 29 mM glycylglycine.
# Huh7 cells = assay: Luciferase expression assay of pDNA polyplexes in Huh7 cells; assay type: cell-based, human
# [6] = pDNA polyplexes, N/P 12, 10 μg/mL pCMVLuc
# [7] = mRNA LNPs, 12.5 μg/mL CleanCap FLuc mRNA (5moU), N/P 9, molar ratios see Table A
# [8] = mRNA polyplexes, 12.5 μg/mL CleanCap FLuc mRNA (5moU), N/P 12 (1611, 1719, 1722, 1732), N/P 24 (1614), N/P 18 (1621, 1747)
# [9] = Cas9 mRNA/sgDMDex23 polyplexes, N/P 24, combined nucleic acid 12.5 μg/mL
# [10] = Cas9 mRNA/sgGFP1 polyplexes, N/P 18, combined nucleic acid 5.0 μg/mL
# [11] = PEGylated pDNA polyplexes 25% PEG, 10 μg/mL pCMVLuc
# [12] = Targeted pDNA polyplexes 12.5% PEG 2k, 12.5% PEG-GE11, 10 μg/mL pCMVLuc
# [13] = Unmodified pDNA polyplexes 0%, 10 μg/mL pCMVLuc
# [14] = pDNA polyplexes, N/P 18, 10 μg/mL pCMVLuc
compound,measurement,setting,value
Stp-K[K(12Oc)2]-Stp [compound 1715],dose dependence of pDNA transfection efficiency,N2a cells [1],good performance only at the highest dose
same,Pdl,[2]; [6],0.100 ± 0.010
same,Z-average,[2]; [6],89.8 ± 1.4 nm
same,Zeta potential,[2]; [6],24.47 ± 1.4 mV
K(12Oc)2-Stp2-K[K(12Oc)2] [compound 1717],transfection efficiency (luciferase expression) of pDNA polyplexes,N2a cells [1],most potent pDNA carriers
K(12Oc)2-Stp-K(12Oc)-K(12Oc) [compound 1612],Pdl,[2]; [7],0.273
same,Z-average,[2]; [7],275.8 nm
same,Zeta potential,[2]; [7],1.88 mV
K(12Oc)2-Stp2-K(12Oc)-K(12Oc) [compound 1722],transfection efficiency (luciferase expression) of mRNA polyplexes,"N2a cells [3]; 24 h, dose titration 63, 31, 16 ng mRNA/well, vs succPEI and 1218",dose-independent transfection efficiency
same,transfection efficiency (luciferase expression) of pDNA polyplexes,N2a cells [1],most potent pDNA carriers
same,Pdl,[2]; [8],0.339
same,Z-average,[2]; [8],92.5 nm
same,Zeta potential,[2]; [8],44.4 mV
K(12Bu)-Stp-K(12Bu) [compound 1763],mCherry mRNA/eGFP pDNA co-expression (co-delivery efficiency),N2a cells [4],most potent structures
K[K[12Oc)2]2-Stp [compound 1613],Pdl,[2]; [7],0.159
same,Z-average,[2]; [7],176.8 nm
same,Zeta potential,[2]; [7],−3.03 mV
"CCCCCCCCCCCCN(CCCCCCCCCCCC)CCCCCCCC(=O)NCCSSCCNC(=O)CCC(=O)NCCCC[C@H](NC(=O)CCC(=O)NCCNCCNCCNCCNC(=O)[C@@H](N)CCCCNC(=O)CCC(=O)NCCSSCCNC(=O)CCCCCCCN(CCCCCCCCCCCC)CCCCCCCCCCCC)C(=O)O [compound 1821, K(ssbb-12Oc)-Stp-K(ssbb-12Oc)]","toxicity (relative metabolic activity, CellTiter Glo)",HeLa cells,significantly less toxic
K[K(12Oc)2]-Stp-K[K(12Oc)2] [compound 1720],Pdl,[2]; [7],0.196
same,Z-average,[2]; [7],209.8 nm
same,Zeta potential,[2]; [7],0.70 mV
K[K2-K(12Oc)2]2 [compound 1851],RLU values relative to Stp2 analog 1717,N2a cells [3]; 15 ng mRNA/well,around 10 fold
same,transfection efficiency of mRNA polyplexes vs Stp2 analog 1717,"N2a cells [3]; all tested N/P ratios, 50 and 15 ng mRNA/well",outperformed its Stp2 analog
K(8Oc)2-Stp2-K(8Oc)-K(8Oc) [compound 1731],Z-average,[2]; [9],67.5 nm
same,Zeta potential,[2]; [9],37.5 mV
"CCCCCCCCCCCCN(CCCCCCCCCCCC)CCCCCCCC(=O)NCCCC[C@H](NC(=O)CCC(=O)NCCNCCNCCNCCNC(=O)[C@@H](N)CCCCNC(=O)CCCCCCCN(CCCCCCCCCCCC)CCCCCCCCCCCC)C(=O)O [compound 1611, K(12Oc)-Stp-K(12Oc)]",in vivo toxicity / tolerability of mRNA polyplexes,[5],good tolerability
K(12Oc)2-Stp2 [compound 1710],dose dependence of pDNA transfection efficiency,N2a cells [1],good performance only at the highest dose
same,Pdl,[2]; [6],0.246 ± 0.024
same,Z-average,[2]; [6],111.8 ± 11.4 nm
same,Zeta potential,[2]; [6],15.6 ± 2.1 mV
[K(12He)]2-Stp2-[K(12He)]2 [compound 1760],in vivo luciferase expression of mRNA polyplexes,"[5]; tumors, lungs, liver, spleen",great in vivo performance
K(12He)-Stp-K(12He) [compound 1765],mCherry mRNA/eGFP pDNA co-expression (co-delivery efficiency),N2a cells [4],most potent structures
K(8Oc)2-Stp-K(8Oc)-K(8Oc) [compound 1620],Pdl,[2]; [9],0.130
same,Z-average,[2]; [9],134.3 nm
same,Zeta potential,[2]; [9],22.7 mV
same,Pdl,[2]; [7],0.152
same,Z-average,[2]; [7],271.1 nm
same,Zeta potential,[2]; [7],−1.41 mV
K(12Oc)-(^εK-^εK-6-Ahx)-K(12Oc) [compound 1747],Pdl,[2]; [8],0.146
same,Z-average,[2]; [8],91.1 nm
same,Zeta potential,[2]; [8],17.5 mV
K(DodOc)2-Stp2-K(DodOc)-K(DodOc) [compound 1725],"transfection efficiency of mRNA polyplexes, DodOc (amide) control vs LAF analog","N2a cells [3]; N/P 12, 62.5 ng mRNA/well",ineffective
same,"transfection efficiency of pDNA polyplexes, DodOc (amide) control vs LAF analog","N2a cells [1]; N/P 12, 200 ng pCMVLuc/well",ineffective
K(12Oc)2-Stp [compound 1614],Pdl,[2]; [8],0.223
same,Z-average,[2]; [8],111.6 nm
same,Zeta potential,[2]; [8],15.7 mV
[K(12Oc)]2-Stp-[K(12Oc)]2 [compound 1718],Pdl,[2]; [9],0.223
same,Z-average,[2]; [9],107.5 nm
same,Zeta potential,[2]; [9],36.0 mV
same,Pdl,[2]; [7],0.140
same,Z-average,[2]; [7],198.1 nm
same,Zeta potential,[2]; [7],0.03 mV
[K(8Oc)]2-Stp2-[K(8Oc)]2 [compound 1745],Pdl,[2]; [10],0.266 ± 0.046
same,Z-average,[2]; [10],99.4 ± 7.9 nm
same,Zeta potential,[2]; [10],11.9 ± 1.6 mV
"CCCCCCCCN(CCCCCCCC)CCCCCCCC(=O)NCCCC[C@H](NC(=O)CCCCCCCN(CCCCCCCC)CCCCCCCC)C(=O)NCCSSCCNC(=O)CCC(=O)NCCCC[C@H](NC(=O)CCC(=O)NCCSSCCNC(=O)[C@H](CCCCNC(=O)CCCCCCCN(CCCCCCCC)CCCCCCCC)NC(=O)CCCCCCCN(CCCCCCCC)CCCCCCCC)C(=O)NCCNCCNCCNCCNC(=O)CCC(=O)O [compound 1792, [(8Oc)2)-K-ssbb]2-K-Stp]","cell viability (relative metabolic activity, CellTiter Glo)","HeLa cells; mRNA polyplexes, 25% of the standard mRNA dose of 250 ng/well, vs 1621",significantly improved cell viability
"CCCCCCCCN(CCCCCCCC)CCCCCCCC(=O)NCCCC[C@H](NC(=O)CCCCCCCN(CCCCCCCC)CCCCCCCC)C(=O)NCCSSCCNC(=O)CCC(=O)NCCCC[C@H](NC(=O)CCC(=O)NCCSSCCNC(=O)[C@H](CCCCNC(=O)CCCCCCCN(CCCCCCCC)CCCCCCCC)NC(=O)CCCCCCCN(CCCCCCCC)CCCCCCCC)C(=O)NCCNCCNCCNCCNC(=O)CCC(=O)NCCNCCNCCNCCNC(=O)CCC(=O)O [compound 1824, [(8Oc)2)-K-ssbb]2-K-Stp2]","toxicity (relative metabolic activity, CellTiter Glo)",HeLa cells,significantly less toxic
K[K[8Oc)2]2-Stp2 [compound 1730],RLU values of targeted polyplexes in comparison to shielded polyplexes,"Huh7 cells; N/P 12, pDNA dose 50 ng/well",32.8 fold
same,RLU values of targeted polyplexes in comparison to shielded polyplexes,"Huh7 cells; N/P 12, pDNA dose 100 ng/well",25.5 fold
same,Pdl,[2]; [11],0.22
same,Size,[2]; [11],100
same,Zeta,[2]; [11],2.0
same,Pdl,[2]; [12],0.17
same,Size,[2]; [12],125
same,Zeta,[2]; [12],2.0
same,Pdl,[2]; [13],0.21
same,Size,[2]; [13],109
same,Zeta,[2]; [13],15.9
same,PDI,[2]; [14],0.10 ± 0.01
same,Z-average,[2]; [14],95.3 ± 1.6 nm
same,Zeta potential,[2]; [14],21.7 ± 0.6 mV
